Results reported in patent publication US20070155823A1, “USE OF BENZO-FUSED HETEROCYCLE SULFAMIDE DERIVATIVES AS NEUROPROTECTIVE AGENTS” (priority 2005, published 2007).
Where “and” joins values, the source holds several entries; their conditions need not be identical. Equal entries are not always repeated. Values belong to the compound of their own block, whether it stands above or below them.

Legend:
[1] = tested on: Rat Cerebral Cortical Cultures; experiment: Cell Titer Glow/Cell Viability in vitro assay, rat cerebral cortical cultures, insult with 150 μM H2O2; type: cell-based; details: 150 μM H2O2 insult; for Cell viability (Cell Titer Glow), single plate: individual plates (each in triplicate), vehicle 0.8-1.2; for Cell viability (Cell Titer Glow), Mean: mean of 3 plates (n=9)
Description: (§1) Cell Titer Glow/Cell Viability In Vitro Assay
(§2) The assay was run according to the procedure listed within the insert of the kit purchased from Promega (see attachment at the end of the application).
(§3) Cell Cultures were prepared as follows. Dissociated hippocampal and cortical cell cultures were established from embryonic day 18 rat fetuses. The fetuses were removed via cesarean section from pregnant dams (Harlan Sprague-Dawley) anesthetized with halothane according to the AVMA Panel on Euthanasia. Pups were decapitated and the brains were removed and placed in Hank's Balanced Salt solution (1×HBSS; Gibco, Rockville, Md.). The hippocampi and cortices were dissected out and pooled according to tissue-type. Tissue was trypsinized for 15 min (1 mg/ml trypsin-HBSS; Worthington, Lakewood, N.J.), rinsed with fresh HBSS, incubated in trypsin inhibitor (1 mg/ml; Sigma, St. Louis, Mo.) for 5 min, rinsed again with fresh HBSS and then triturated in 1 ml fresh HBSS with a fire-polished glass pipette. Dissociated cells were seeded at 10,000 cells/well onto poly-D-lysine coated 96-well plates (BD BioScience, Bedford, Ma.) containing 100 ul/well Eagle's Minimal Essential Media (MEM; Gibco) supplemented with 26 mM NaHCO3 (Sigma), 40 mM glucose (Sigma), 20 mM KCl (Sigma), 1 mM sodium pyruvate (Sigma), 10% (v/v) heat-inactivated fetal bovine serum (Hyclone, Logan, Utah), and 0.001% gentamicin sulfate (Sigma) (pH 7.4). Serum-free cultures were plated and maintained in Neurobasal medium+B27 supplement (Gibco). Cells were allowed to attach for 24 h in a humidified 37° C. 5% CO2 incubator before experimental treatment.
(§4) Test compounds were prepared as follows: A 10 mM stock in DMSO of each compound was diluted 1:50 in DPBS rendering a final stock of 200 μM. […] Equal amounts of vehicle or diluted compound were added to each culture well.
(§5) A 30% stock solution of hydrogen peroxide (H2O2; Sigma) was diluted with DPBS 1:100 to yield a […] stock. Five microliters of vehicle or H2O2 stock solution was added to each 100 ul culture well to yield a final concentration of 150 uM.
(§6) Note that in the data listed below, each plate was run in triplicate for a total of n=9.

Rat Hippocampal Cultures = experiment: Cell Titer Glow/Cell Viability in vitro assay, rat hippocampal cultures, insult with 150 μM H2O2; type: cell-based; details: for Cell viability (Cell Titer Glow), single plate / Cell viability (Cell Titer Glow), Mean: rat hippocampal cultures, 150 μM H2O2 insult; for Cell viability (Cell Titer Glow), single plate: individual plates (each in triplicate), vehicle 0.5-0.6; for Cell viability (Cell Titer Glow), Mean: mean of 3 plates (n=9), vehicle mean 0.5
Description: as §1, §2, §3, §4, §5, §6

SMILES: NS(=O)(=O)NC[C@H]1COc2cc(Cl)ccc2O1 [Compound #8, (2S)-(−)-N-(6-Chloro-2,3-dihydro-benzo[1,4]dioxin-2-ylmethyl)-sulfamide]
- Cell viability (Cell Titer Glow), single plate ([1]; compound 0.1 μM): 28 and 64 and 97
- Cell viability (Cell Titer Glow), Mean ([1]; compound 0.1 μM, SD 35, vehicle mean 1, *p < 0.05): 63*
- Cell viability (Cell Titer Glow), single plate ([1]; compound 1 μM): 19 and 51 and 38
- Cell viability (Cell Titer Glow), Mean ([1]; compound 1 μM, SD 16, vehicle mean 1): 36
- Cell viability (Cell Titer Glow), single plate ([1]; compound 10 μM): 10 and 18 and 51
- Cell viability (Cell Titer Glow), Mean ([1]; compound 10 μM, SD 22, vehicle mean 1): 26
- Cell viability (Cell Titer Glow), single plate (Rat Hippocampal Cultures; compound 0.1 μM): 24 (2×) and 26
- Cell viability (Cell Titer Glow), Mean (Rat Hippocampal Cultures; compound 0.1 μM, SD 1, **p < 0.01): 25**
- Cell viability (Cell Titer Glow), single plate (Rat Hippocampal Cultures; compound 1 μM): 16 and 17 (2×)
- Cell viability (Cell Titer Glow), Mean (Rat Hippocampal Cultures; compound 1 μM, SD 0.6): 17
- Cell viability (Cell Titer Glow), single plate (Rat Hippocampal Cultures; compound 10 μM): 10 and 14 and 15
- Cell viability (Cell Titer Glow), Mean (Rat Hippocampal Cultures; compound 10 μM, SD 3): 13
- Protection of neurons from death and/or damage from oxidative stress or oxidative injury (Rat Hippocampal Cultures; summary in words of Tables 4 and 5 (rat hippocampal and cerebral cortical cultures, 150 μM H2O2)): effective at protecting neurons from death and/or damage from oxidative stress or oxidative injury

- melting point: 100 to 101 °C
SMILES: NS(=O)(=O)NCC1CCc2ccccc2O1 (centres unmarked) [Compound #10, Chroman-2-ylmethylsulfamide]
